Legend:
[1] = test system: wild-type AB-line zebrafish; conditions: 3 dpf to 5 dpf, 35° C.; survival rate>90% and teratogenicity<20%
Protocol: The zebrafish model is a wild-type AB-line zebrafish from College of Biotechnology and Pharmaceutical Engineering, Nanjing Tech University, and is carried out by a natural mating reproduction method, with 30 zebrafish of 2 dpf in each experimental group. The zebrafish is fed in fish culture water at 28° C. (water quality:200 mg of instant sea salt and CaCO3 are added into 1 L of reverse osmosis water with a conductivity of 480 uS/cm to 510 uS/cm, a pH value of 6.9 to 7.2, and a hardness of 53.7 mg/L to 71.6 mg/L), and the feeding management meets the requirements of international AAALAC certification.
240 3 dpf wild-type AB-line zebrafish were randomly selected in an 8-well plate, with 30 zebrafish in each well, and 3 mL of fish culture water in each well, the cordycepin was diluted according to a maximum lethal dose, dissolved in DMSO, and added into each well according to a concentration gradient (the maximum lethal dose was diluted by 100 times, in which 8 concentration gradient values were taken for the experiment), and meanwhile, a normal control group, a solvent control group G (5% glucose) and a solvent control group D (DMSO) were set. During the experiment, the zebrafish in each group were cultured at 35° C., after the zebrafish were treated to be 5 dpf with a sample to be tested, lethal and developmental malformation conditions of the zebrafish in different doses were investigated respectively, and a maximum tolerance dose (MTD) of the sample to be tested to normal zebrafish was determined under a concentration when survival rate>90% and teratogenicity<20%.

MC-38 colon cancer cells = assay: Mouse transplanted colon cancer model; format: in vivo, C57BL/6j nude mice; conditions: MC-38 transplanted mice, 28 days, 500 ug/time/animal intragastric (compound daily, antibody every 4 days); control 1,300 mm^3
Protocol: (§1) The feeding of the mouse model in the drug evaluation follows that: mice are fed and treated in a laminar flow cabinet, with 5 nude mice in each cage, drinking water and feedstuffs are added once every 3 days, and paddings are replaced once a week; a number of mice kept in each cage is no more than 5, the mice in separate cages are kept in groups as far as possible, and the mice should not be kept in a single cage; the animal management must conform to the relevant national standards on animal feeding management, and the behavioral needs of animals should be concerned at the same time to avoid unnecessary stress; the normal physiological and behavioral needs of animals, such as defecation, urination, constant body temperature maintenance, normal activities, posture adjustment and reproduction are met; good ventilation and dry animals are kept; the animals can access to drinking water and food at will, and supplementation, replacement and cleaning operations are easily carried out; a solid and safe environment is provided to avoid accidents of animals, such as escaping or limb trapping in a gap; the animals are avoided from being damaged by sharp edges or protrusions; and the animals are not disturbed during observation.
A mouse transplanted colon cancer model was established and a drug was evaluated. […]

B16-F10 melanoma cells = assay: Mouse transplanted melanoma model; format: in vivo, C57BL/6j nude mice; conditions: B16-F10 transplanted mice, intragastric 500 ug/time/animal every other day, 24 days; blank 1760 mm^3
Protocol: as §1
A mouse transplanted melanoma model was established and a drug was evaluated. 2.5×10^5 B16-F10 melanoma cells were suspended in 100 μL of PBS to be inoculated into an outer side of thigh of left lower limb of C57BL/6j nude mice. One week later, when the transplanted tumor reached about 100 mm^3, the mice were randomly divided into ten groups, with 10 mice in each group, comprising a blank control group, a cordycepin group, a compound 13 group, a compound 14 group, a compound 17 group, a compound 19 group, a compound 22 group, a compound 26 group, a compound 29 group and a compound 34 group respectively. The blank control group was intragastrically administrated with a nutritional agent such as a corn steep liquor and DMSO as a solvent control every day for 24 consecutive days, and the compound groups were intragastrically administrated with corresponding compounds (500 ug/time/animal in all cases) every other day for 24 consecutive days. […] The mice were killed after the experiment, blood and corresponding tissue samples were collected, tumor bodies were immediately photographed and weighed, and some tumor tissues were fixed in a formalin solution to be further detected. Two vertical diameters (length and width) of the transplanted tumor were measured with a caliper every two days to calculate a size of the transplanted tumor, and a tumor value was calculated according to a formula: tumor volume (mm^3)=[…].

Structure (SMILES)	Maximum tolerance dose (MTD) in zebrafish model [1]	tumor size (MC-38 colon cancer cells)	tumor volume (B16-F10 melanoma cells)
CC(C)OC(=O)C(C)NP(=O)(COC[C@@H]1CC(O)[C@H](n2cnc3c(NC(=O)c4ccncc4)ncnc32)O1)Oc1ccccc1 (stereo partly shown) [Compound 24, isopropyl((((4-hydroxy-5-(6-(isonicotinamide)-9H-purin-9-yl)tetrahydrofuran-2-yl)methoxy)methyl)(phenoxy)phosphoryl)alanine ester]	5 µM		
Nc1ncnc2c1ncn2[C@@H]1O[C@H](CO)C[C@H]1O [Cordycepin, 3′-deoxyadenosine]	995 µM	730 mm^3	600 mm^3

— patent publication US12215123B2, “Cordycepin-based derivatized compound with anti-tumor effect” (NANJING TECH UNIVERSITY, priority 2022, dated 2025)
